Measurements published in article PMC10082216 (Nature Communications, 2023).
Read-outs that look alike come from different tables or passages of the source.

How the values were obtained:
[1] = tested on: mature stage V gametocytes (NF54 strain); assay: High-throughput screening: killing effect by MitoTracker staining, primary screening at 1.11 µM and dose-response analysis; assay type: cell-based, Plasmodium falciparum; design: Killing 1 / Killing 2: unit not given here
Outline: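 NF54 stage V gametocytes (day 17, density-purified, 0.5% hematocrit) exposed 24 h to compounds at 1.11 µM (primary) or in dose-response. Killing scored by MitoTracker staining; gametocytemia by Sybr Green/CellMask staining, with microsphiltration for stiffening. DMSO 0.05% negative control.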

[2] = tested on: synchronized ring-stage P. falciparum 3D7-pULG8-GFP; assay: Dose-response analysis on asexual parasites, 3D7; assay type: cell-based; conditions: Plasmodium falciparum
Protocol: (§1) Plasmodium falciparum 3D7-pULG8-GFP or NF54 strains were synchronized by sorbitol lysis. Rings were then diluted to 0.5% parasitemia and loaded into an empty 96-well plate (200 µL/well). First, well volume was doubled and compound was added to obtain 20 µM (TD-6450) and 500 nM (NITD609) final concentrations. The ring suspension was then manually serially diluted 1/2 for 12 points, obtaining 9.77 nM (TD-6450) and 0.24 nM (NITD609) as lowest concentrations. The same operation was done with DMSO to have a negative control. After 48 hours of incubation, the plates were centrifugated and RBC pellets were incubated for 30 min with Sybr-G (1/1000 diluted in PBS, Thermo Fisher cat. no. S7567). After PBS washing (2x), pellets were resuspended in 200 µL of PBS and parasitemia was quantified by FACSCanto and analyzed with FlowJo V12. IC50s were determined using GraphPad Prism 5.1 as mentioned. Images from optical microscopy were taken using a Leica inverted microscope and analyzed with Las X software.

[3] = tested on: synchronized ring-stage P. falciparum NF54; assay: Dose-response analysis on asexual parasites, NF54; assay type: cell-based, Plasmodium falciparum; conditions: for IC50: Plasmodium falciparum, NF54, 48 h; for Parasitemia 1 / Parasitemia 2 / Parasitemia 3: NF54 ring stage
Protocol: as §1

[4] = 3D7, 48 h, read-out: IC50, 3D7 strain (Fig. 5B)

| SMILES | Killing 1 ([1]; Concentration (µM) 0.00457) | Killing 2 ([1]; Concentration (µM) 0.00457) | Killing 1 ([1]; Concentration (µM) 0.01372) | Killing 2 ([1]; Concentration (µM) 0.01372) | Killing 1 ([1]; Concentration (µM) 0.04115) | Killing 2 ([1]; Concentration (µM) 0.04115) | Killing 1 ([1]; Concentration (µM) 0.12346) | Killing 2 ([1]; Concentration (µM) 0.12346) | Killing 1 ([1]; Concentration (µM) 0.37037) | Killing 2 ([1]; Concentration (µM) 0.37037) | Killing 2 ([1]; Concentration (µM) 1.11111) | Killing 2 ([1]; Concentration (µM) 3.33333) | Killing 2 ([1]; Concentration (µM) 10) | Killing 1 ([1]; Concentration (µM) 1.11111) | Killing 1 ([1]; Concentration (µM) 3.33333) | Killing 1 ([1]; Concentration (µM) 10) | IC50 [2, 4] | also measured |
| --- | --- | --- | --- | --- | --- | --- | --- | --- | --- | --- | --- | --- | --- | --- | --- | --- | --- | --- |
| COc1cc2c(cc1OC)[C@@H]1Cc3ccc(OC)c(OC)c3CN1CC2 [(S)-(-)-Tetrahydropalmatine] | -2.5151 | 13.1152 | -0.7507 | 16.6892 | -11.759 | -1.725 | -2.104 | -3.416 | -7.032 | 6.932 | -20.6174 | 1.7558 | -10.2887 |  |  |  |  |  |
| C[C@H]1Cc2c([nH]c3cc(Cl)c(F)cc23)[C@@]2(N1)C(=O)Nc1ccc(Cl)cc12 [NITD609, cipargamin] | -6.197 | 1.637 | 7.015 | 11.7246 | 2.936 | 8.401 | 38.3591 | 39.938 | 69.6281 | 81.8548 | 86.5546 | 89.8018 | 89.7094 | 86.7644 | 82.0471 | 93.1364 | 0.00125 µM | Killing IC10 ([1]; Fig. 3 dose-response): 0.05 µM; IC50 ([1]; Plasmodium falciparum, NF54, 24 h, stage V gametocytes NF54, 24 h, dose-response analysis, N/A = not active in dose-response analysis, read-out: Killing IC50): 0.15 µM; IC90 ([1]; Plasmodium falciparum, NF54, Fig. 3 dose-response): 0.5 µM; IC50 ([3]; ring stage, red curves, read-out: IC50, NF54 strain (Fig. 5B)): 0.0018 µM |
| CNC(=O)N1C[C@@H](C)N(c2ccc(C(=O)Nc3ccc(-c4ccc(-c5c[nH]c([C@@H]6CCCN6C(=O)[C@@H](NC(=O)OC)C(C)C)n5)cc4)c(OC(F)(F)F)c3)cn2)C[C@@H]1C [TD-6450] | 11.2808 | -14.2963 | 2.341 | 5.18 | 2.7905 | -6.465 | 6.495 | 2.622 | 21.5808 | 10.8967 | -5.531 | 15.2641 | 9.163 | 13.8006 | 21.7528 | 38.4381 | 0.73 µM | IC50 ([2]; 3D7, 2 experiments, 48 h, read-out: IC50 on asexual parasites, 3D7): 0.875 ± 0.205 µM; Parasitemia 1 ([3]; 10 µM): 0.14; Parasitemia 2 ([3]; 10 µM): 0.17; Parasitemia 3 ([3]; 10 µM): 0.23; Parasitemia 1 ([3]; 20 µM): 0.2; Parasitemia 2 ([3]; 20 µM): 0.18; Parasitemia 3 ([3]; 20 µM): 0.2; IC50 ([3]; 2 experiments, read-out: IC50 on asexual parasites, NF54): 1.33 ± 0.23 µM; IC50 ([3]; ring stage, blue curves, read-out: IC50, NF54 strain (Fig. 5B)): 1.17 µM |
